Experimental data: patent US4734416A, “Pharmaceutically useful carbostyril derivatives” (Otsuka Pharmaceutical Co., Ltd., priority 1978, dated 1988)
Counter-ions that a name gives are not always drawn.

Tests used:
[1] = biological target: T1, enucleated ileum of a guinea pig (Cavia porcellus, UniProt P31389); assay: Antihistamine activity test in vitro (enucleated guinea pig ileum, histamine retraction, pA2 by Van Rossam method); conditions: 10^-6 g/ml test compound, 5 minutes before histamine, 36° C.
T1 construct: the tissue of ileum is cut to a length of 2.5 to 3.0 cm and suspended in an organ bath; from tissue; host or cells: isolated ileum from the ileocecal region of male guinea pig
T1 sequence (P31389 whole entry): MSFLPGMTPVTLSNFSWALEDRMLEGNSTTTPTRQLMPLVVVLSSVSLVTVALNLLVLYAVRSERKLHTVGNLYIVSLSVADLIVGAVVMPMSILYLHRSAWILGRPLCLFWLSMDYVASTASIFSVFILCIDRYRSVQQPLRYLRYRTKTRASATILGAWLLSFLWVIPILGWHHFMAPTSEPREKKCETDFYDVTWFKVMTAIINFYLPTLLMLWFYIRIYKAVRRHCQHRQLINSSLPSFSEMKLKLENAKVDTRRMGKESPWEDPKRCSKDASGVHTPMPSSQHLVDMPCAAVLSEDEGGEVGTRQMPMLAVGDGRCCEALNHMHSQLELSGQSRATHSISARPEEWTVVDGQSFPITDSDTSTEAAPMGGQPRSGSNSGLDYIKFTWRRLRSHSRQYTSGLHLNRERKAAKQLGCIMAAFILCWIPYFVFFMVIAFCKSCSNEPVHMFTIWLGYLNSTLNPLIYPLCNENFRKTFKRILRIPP
Protocol: As to the test method for determining antihistamine activity of a compound in vitro, a method of using an enucleated ileum of a guinea pig is generally accepted.
A male guinea pig having 300 to 500 g body weight is killed by blood letting. An ileum having a length of 15 cm being enculeated from the ileocecal region is dipped into Tyrode's solution (which is prepared from […], 0.2 g of KCl, 0.2 g of CaCl2, 1.0 g of glucose, 1.0 g of NaHCO3, 0.065 g of NaHPO4.2H2 O and 0.2135 g of MgCl2.6H2 O to make 1000 ml in total volume by adding water). Then the tissue of ileum is cut to a length of 2.5 to 3.0 cm and suspended in an organ bath filled with 30 ml of Tyrode's solution. The organ bath is kept at a temperature of 36° C. and a mixed gas consisting of 5% of CO2 and 95% of O2 is blown into the bath. 10 Minutes after the blowing, 10^-6 M of histamine is added to the bath to examine the sensitivity of the tissue and a reaction curve (control) with respect to the dosage of histamine is obtained. After the dosage of histamine-reaction curve (control) becomes constant, 10^-6 g/ml of a compound to be tested is added to the bath and further histamine is added 5 minutes later to obtain a dosage-reaction curve. Retraction of the ileum is recorded on a pen-recorder through an isotonic transducer [TD-112S manufactured by Nihon Koden]. Antihistamine activity of the test compound is determined as pA2 value by the "Van Rossam" method [J. M. Van Rossam; Arch. Inst. Pharmacodyn., 143, 299 (1963)] wherein the maximum retraction of ileum caused by histamine shown in the control curve is 100%.

[2] = Halothane anesthesia increasing activity (righting reflex); assay type: in vivo, mouse (male, ddy-strain); conditions: oral; for Time (minutes) between introduction of anesthesia and waking: 8 mg/kg, 1 hour before 4% Halothane
Protocol: Male mice of ddy-strain having about 20 g body weight are used. One test group consists of 10 mice. An aqueous Gummi Arabicum suspension of test compound (80 mg of a compound to be tested and 1 g of Gummi Arabicum/100 ml of physiological NaCl solution) is administered orally to each mouse at the dosage of 8 mg of test compound/kg body. One hour after the administration, each mouse is placed in a gas respiration chamber (13×13×24 cm) and oxygen gas containing 4% of Halothane [2-bromo-2-chloro-1,1,1-trifluoroethane] is blown into the chamber at the velocity of 2 l/min for 3 minutes. A mouse anaesthetized is taken out from the chamber and the time between the introduction of anesthesia to waking is measured by righting reflex as the index. To mice of the control group, 1% Gummi Arabicum aqueous physiological solution is orally administered at the dosage of 0.1 ml/10 g body. [Reference: M. J. Turnbull and J. W. Watkins: Br. J. Pharmac., 58, 27-35 (1976)]
Same procedures as mentioned in (II)-(A) are employed, except that the amount of test compound to be orally administered is changed in 4 steps at the dosage of 0.5 mg/kg, 1 mg/kg, 2 mg/kg and 4 mg/kg respectively to measure the relationship between the dosage and degree of strength of anesthesia increasing activity.

| SMILES | Kb [1] | Time (minutes) between introduction of anesthesia and waking [2] | Anesthesia increasing activity ([2]; 0.5 mg/kg) | Anesthesia increasing activity ([2]; 1 mg/kg) | Anesthesia increasing activity ([2]; 2 mg/kg) | Anesthesia increasing activity ([2]; 4 mg/kg) |
| --- | --- | --- | --- | --- | --- | --- |
| O=C1CCc2c(cccc2OCC(O)CN2CCN(c3ccccc3)CC2)N1 (stereo not drawn) [Compound 1, 5-[2-Hydroxy-3-(4-phenylpiperazinyl)propoxy]-3,4-dihydrocarbostyril monohydrochloride] | 8.32 nM | 9.3 ± 4.9 min | – | – | – | – |
| O=C1CCc2ccc(OCC(O)CN3CCN(c4ccccc4)CC3)cc2N1 (stereo not drawn) [Compound 2, 7-[2-Hydroxy-3-(4-phenylpiperazinyl)propoxy]-3,4-dihydrocarbostyril monohydrochloride] | 17.8 nM | 11.7 ± 5.6 min | – | – | – | – |
| O=C1CCc2c(OCC(O)CN3CCN(c4ccc(Cl)cc4)CC3)ccc(Cl)c2N1 (stereo not drawn) [Compound 3, 8-Chloro-5-{2-hydroxy-3-[4-(4-chlorophenyl)piperazinyl]propoxy}-3,4-dihydrocarbostyril monohydrochloride] | 4.9 nM | 7.9 ± 3.4 min | – | – | – | – |
| O=C1CCc2c(c(Cl)cc(Cl)c2OCC(O)CN2CCN(c3ccccc3)CC2)N1 (stereo not drawn) [Compound 4, 6,8-Dichloro-5-[2-hydroxy-3-(4-phenylpiperazinyl)propoxy]-3,4-dihydrocarbostyril monohydrochloride] | 1.12 nM | 7.4 ± 2.7 min | – | – | – | – |
| O=C1CCc2c(OCC(O)CN3CCN(c4ccccc4)CC3)cccc2N1Cc1ccccc1 (stereo not drawn) [Compound 8, 1-Benzyl-5-[2-hydroxy-3-(4-phenylpiperazinyl)propoxy]-3,4-dihydrocarbostyril monohydrochloride] | 0.0158 nM | 7.5 ± 3.3 min | – | – | – | – |
| Cc1ccc(N2CCN(CCCCOc3cccc4c3CCC(=O)N4)CC2)cc1 [Compound 10, 5-{4-[4-(4-Methylphenyl)piperazinyl]butoxy}-3,4-dihydrocarbostyril] | 1.26 nM | 7.9 ± 3.7 min | – | – | – | – |
| C=CCN1C(=O)CCc2c(OCC(O)CN3CCN(c4ccc(C)cc4)CC3)cccc21 (stereo not drawn) [Compound 11, 1-Allyl-5-{2-hydroxy-3-[4-(4-methylphenyl)piperazinyl]propoxy}-3,4-dihydrocarbostyril] | 0.617 nM | 6.8 ± 2.2 min | – | – | – | – |
| O=C1CCc2ccc(OCCCN3CCN(c4ccccc4)CC3)cc2N1Cc1ccccc1 [Compound 12, 1-Benzyl-7-[3-(4-phenylpiperazinyl)propoxy]-3,4-dihydrocarbostyril] | 6.17 nM | 7.5 ± 3.5 min | – | – | – | – |
| Cc1cc(=O)[nH]c2cc(OCCCN3CCN(c4ccccc4)CC3)ccc12 [Compound 13, 4-Methyl-7-[3-(4-phenylpiperazinyl)propoxy]carbostyril] | 0.407 nM | 8.1 ± 2.7 min | – | – | – | – |
| O=C1CCc2ccc(OCCCN3CCN(Cc4ccccc4)CC3)cc2N1 [Compound 14, 7-[3-(4-Benzylpiperazinyl)propoxy]-3,4-dihydrocarbostyril] | 0.794 nM | 7.5 ± 4.3 min | – | – | – | – |
| Cc1ccc(N2CCN(CCCOc3ccc4c(c3)NC(=O)CC4)CC2)cc1 [Compound 15, 7-{3-[4-(4-Methylphenyl)piperazinyl]propoxy}-3,4-dihydrocarbostyril] | 0.331 nM | 12.7 ± 3.5 min | – | – | – | – |
| O=C1CCc2ccc(OCCCN3CCN(c4ccc(Cl)cc4)CC3)cc2N1 [Compound 16, 7-{3-[4-(4-Chlorophenyl)piperazinyl]propoxy}-3,4-dihydrocarbostyril] | 0.234 nM | 11.4 ± 5.6 min | – | – | – | – |
| CC1CN(CCCOc2ccc3c(c2)NC(=O)CC3)CCN1c1ccc(Cl)cc1 (stereo not drawn) [Compound 18, 7-{3-[3-Methyl-4-(4-chlorophenyl)piperazinyl]propoxy}-3,4-dihydrocarbostyril dihydrochloride] | 2.19 nM | 8.4 ± 2.5 min | – | – | – | – |
| O=C1CCc2cccc(OCCCN3CCN(c4ccccc4)CC3)c2N1 [Compound 19, 8-[3-(4-Phenylpiperazinyl)propoxy]-3,4-dihydrocarbostyril] | 10.2 nM | 9.3 ± 3.5 min | – | – | – | – |
| CC(=O)OC(COc1cccc2c1CCC(=O)N2)CN1CCN(c2ccccc2)CC1 (stereo not drawn) [Compound 20, 5-[2-Acetyloxy-3-(4-phenylpiperazinyl)propoxy]-3,4-dihydrocarbostyril] | 1.23 nM | 9.8 ± 3.7 min | – | – | – | – |
| COc1cc(C(=O)OC(COc2cccc3c2CCC(=O)N3)CN2CCN(c3ccccc3)CC2)cc(OC)c1OC (stereo not drawn) [Compound 21, 5-[2-(3,4,5-Trimethoxybenzoyloxy)-3-(4-phenylpiperazinyl)propoxy]-3,4-dihydrocarbostyril] | 0.912 nM | 8.1 ± 3.9 min | – | – | – | – |
| COc1ccccc1N1CCN(CCCOc2ccc3ccc(=O)[nH]c3c2)CC1 [Compound 22, 7-{3-[4-(2-Methoxyphenyl)piperazinyl]propoxy}-carbostyril dihydrochloride] | 11.7 nM | 10.4 ± 4.1 min | – | – | – | – |
| CC(C)N1C(=O)CCc2ccc(OCCCN3CCN(c4ccccc4)CC3)cc21 [Compound 23, 1-(2-Propyl)-7-[3-(4-phenylpiperazinyl)propoxy]-3,4-dihydrocarbostyril dihydrochloride] | 0.589 nM | 7.6 ± 4.2 min | – | – | – | – |
| O=C1CCc2ccc(OCCCN3CCN(c4cccc(F)c4)CC3)cc2N1 [Compound 24, 7-{3-[4-(3-Fluorophenyl)piperazinyl]propoxy}-3,4-dihydrocarbostyril] | 0.257 nM | 11.6 ± 6.7 min | – | – | – | – |
| CC(COc1ccc2c(c1)NC(=O)CC2)CN1CCN(c2ccccc2)CC1 (stereo not drawn) [Compound 25, 7-[2-Methyl-3-(4-phenylpiperazinyl)propoxy]-3,4-dihydrocarbostyril] | 0.617 nM | 7.8 ± 3.3 min | – | – | – | – |
| O=c1cc(OCCCN2CCN(c3ccccc3)CC2)c2ccccc2[nH]1 [Compound 26, 4-[3-(4-Phenylpiperazinyl)propoxy]carbostyril] | 2.19 nM | 8.5 ± 3.7 min | – | – | – | – |
| O=c1cc(-c2ccccc2)c2ccc(OCCCN3CCN(c4ccccc4)CC3)cc2[nH]1 [Compound 27, 4-Phenyl-7-[3-(4-phenylpiperazinyl)propoxy]carbostyril] | 0.977 nM | 7.8 ± 3.2 min | – | – | – | – |
| O=C1CCc2cc(Cl)c(OCCCN3CCN(c4ccccc4)CC3)c(Br)c2N1 [Compound 28, 6-Chloro-8-bromo-7-[3-(4-phenylpiperazinyl)propoxy]-3,4-dihydrocarbostyril dihydrochloride] | 0.229 nM | 10.2 ± 5.8 min | – | – | – | – |
| COc1cc(N2CCN(CCCOc3ccc4c(c3)NC(=O)CC4)CC2)cc(OC)c1OC [Compound 29, 7-{3-[4-(3,4,5-Trimethoxyphenyl)piperazinyl]propoxy}-3,4-dihydrocarbostyril dihydrochloride] | 2.69 nM | 9.3 ± 4.4 min | 5.6 ± 2.8 min | 6.6 ± 3.1 min | 8.3 ± 3.7 min | 13.6 ± 4.9 min |
| CCCCCCN1C(=O)CCc2ccc(OCCCN3CCN(c4ccccc4)CC3)cc21 [Compound 38, 1-Hexyl-7-[3-(4-phenylpiperazinyl)propoxy)]-3,4-dihydrocarbostyril dihydrochloride] | 1.17 nM | – | – | – | – | – |
| CCCC(C)C1(CC)C(=O)NC(=O)NC1=O (stereo not drawn) [Pentobarbital, reference compound] | – | – | 5.3 ± 2.6 min | 4.9 ± 3.5 min | 6.3 ± 2.3 min | 8.1 ± 3.1 min |
